{
  "source": "patent US20040170581A1",
  "about": "“Cosmetic agents” (priority 2001, published 2004)",
  "key": {"[1]": {"system": "G6PDH (glucose 6 phosphate dehydrogenase)", "assay": "G6PDH activity on human dermal fibroblasts", "type": "cell-based", "settings": "control = 100, 8 assays", "from_the_text": "This test was used to determine stimulation of the enzyme G6PDH (glucose 6 phosphate dehydrogenase) which counteracts the ageing process of human skin. G6PDH catalyzes the first step of the “pentose shunt” (also known as hexose monophosphate shunt or HMP shunt). The first step, the transformation of glucose-6-phosphate (G6P) into 6-phosphogluconate (6GP) by G6PDH, needs the coenzyme NADP which in turn is converted into NADPH2. This reduced form of the coenzyme catalyzes many enzymatic reactions and also glutathione recycling and lipid synthesis.\nDetermination of the G6PDH activity (glucose 6 phosphate dehydrogenase) was carried out by the microprocess described by Garidelli de Quincenet in Annual Dermatol. Venereol. 107 (12), 1163-1170 (1980). The DNA content was determined by the method described by Desaulniers in Toxic. In vitro 12 (4), 409-422 (1998) using in vitro cultures of human dermal fibroblasts. […]"}, "human keratinocytes": {"system": "human keratinocytes", "assay": "Cell protection against UV-B rays (cellular DNA, LDH release)", "type": "cell-based", "settings": "UV-B 50 mJ/cm^2, conc. 0.01 % w/v", "experimental": "UV-B was selected as the stress factor because the rays produce cutaneous inflammation ([…]) by activating enzymes that release arachidonic acid, such as phospholipase A2 (PLA2) for example. […] The influence of UV-B rays on keratinocytes was determined in vitro through the release of cytoplasmatic enzymes, such as LDH (lactate dehydrogenase) for example, which runs parallel to the cell damage and the formation of PGE2. To carry out the test, a fibroblast culture was mixed with foetal calf serum and inoculated with the test substances 2 days later. After incubation for 36 h at 37° C. and a CO2 level of 5% by vol., the nutrient medium was replaced by an electrolyte solution and the fibroblasts were damaged with a particular dose of UV-B (50 mJ/cm^2). The quantity of keratinocytes was determined after trypsination via a cell counter while the LDH concentration was enzymatically determined."}, "[2]": {"system": "superoxide anions O2° produced by lipoxygenase", "assay": "Anti-free radical test with superoxide anions produced by lipoxygenase", "type": "biochemical", "experimental": "Activity against free radicals was determined by a biochemical test with a reactive oxygen species (ROS), the so-called superoxide anion (O2°). Superoxide anions come from xanthine oxidase and lipoxygenase activities. Xanthine oxidase (XOD) is an enzyme which is activated during oxidative stress and catalyzes the release of O2° during the degradation of hypoxanthine (HX) which is produced in excess in the event of a disturbance to the energy cell metabolism. O2° is then reacted spontaneously or by superoxide dismutase (SOD) to form hydrogen peroxide (H2O2) which in turn is a source of HO radicals which continue reacting in the Fenton reaction. O2° released during an inflammation process is formed from arachidonic acid by the lipoxygenase activity of leucocytes during the leucotriene synthesis (MacCord, M., Chabot Fletcher, M., Breton, J., Marshall, L.A.; Journal of Investigative Dermatology, 1994, Vol. 102, pp. 980-986; Bouclier, M., Hensby C.N.; Annales de Dermatologie & de V{acute over (en)}reologie, 1986, Vol. 113, pp. 1289-1293).\nThe enzymatic system arachidonic acidlipoxygenase leads during the synthesis of leucotrienes to the formation of O2° which can be determined by luminescence via luminol. Activity against free radicals is greater, the more the luminescence is suppressed."}},
  "data": [
    {"smiles": "CC1=C(/C=C/C(C)=C/C=C/C(C)=C/C(=O)O)C(C)(C)CCC1", "note": "[Retinoic acid]", "values": [
      {"measurement": "Level of G6PDH activity on day 6 (%/against control) Average value", "setting": "[1]; concentration 0.0003 mM", "value": 120, "unit": "%/against control"},
      {"measurement": "Level of G6PDH activity on day 6 (%/against control) Average value", "setting": "[1]; concentration 0.001 mM", "value": 128, "unit": "%/against control"}
    ]},
    {"smiles": "O=C1O[C@H]([C@@H](O)CO)C(O)=C1O", "note": "[ascorbic acid]", "values": [
      {"measurement": "LDH released", "setting": "human keratinocytes; blank with UV-B = 100", "value": 50, "unit": "%-rel."},
      {"measurement": "Cellular DNA", "setting": "human keratinocytes; blank without UV-B = 100, blank with UV-B = 29", "value": 48, "unit": "%-rel."}
    ]},
    {"smiles": "O=C(O)/C=C/c1ccc(O)c(O)c1", "note": "[Caffeic acid]", "values": [
      {"measurement": "% Inhibition", "setting": "[2]; concentration 0.00002 % w/v", "value": 16, "unit": "%"},
      {"measurement": "% Inhibition", "setting": "[2]; concentration 0.0002 % w/v", "value": 54, "unit": "%"}
    ]}
  ]
}
